The text below walks through data of patent US6492334B1, “Tri-compound analgesic for treating inflammation and pain” (priority 1999, dated 2002).

Structures are written as SMILES.

The test system of data set [1] is diagnosed torn muscle. Nature of the data set: Treatment of a subject with diagnosed torn muscle. The format is in vivo, human. As to conditions: person; for side effect of the prescriptions: NAPROSYN and FLEXERIL prescribed together; for relief by the third day: NAPROSYN and FLEXERIL prescribed together with bed rest, ice packs, heat. The text has this: The seventh subject was a person with a diagnosed torn muscle. Emergency Room treatment prescribed NAPROSYN (the trademark name for the drug naproxen sodium) an NSAID, and FLEXERIL(the trademark name for the drug cyclobenzaprene) a muscle relaxant. Also prescribed was bed rest and ice packs for the next 2 to 3 days. Heat was to be used by the second day to relieve spasm. […] This subject was given a protocol of 5 gram of ACI per dose, not the 3 gram ACI per dose as in the previous examples. This protocol was to be taken every hours 4 times per day.
In all examples mentioned there was no compounding of any pills and no placebos were given.

Data set [2] concerns arthritis. As to conditions: as reported by the American Rheumatism Association; cited from earlier work.

Regarding `CN(C)CCC=C1c2ccccc2C=Cc2ccccc21` [FLEXERIL, cyclobenzaprene], in data set [1], the “side effect of the prescriptions” value was “made them drowsy” and the “relief by the third day” value is “no relief”.

On to `COc1ccc2c(c1)c(CC(=O)O)c(C)n2C(=O)c1ccc(Cl)cc1` [INDOCIN, indomethacin], for which the “effect on arthritis compared with placebo” value in data set [2] is “no more effect on arthritis than a placebo”.

On to `COc1ccc2cc([C@H](C)C(=O)O)ccc2c1` [NAPROSYN, naproxen sodium], for which, in data set [1], the “side effect of the prescriptions” value is “made them drowsy” and the “relief by the third day” value is listed as “no relief”.
